≈ marks a conversion by molar mass, not a printed value. Like-named read-outs stand apart in the source and are kept apart here. Numbered stars: 1 amine (or outer) side, 2 acyl side, 3 side chain; on linkers, the order of the positions; unused ones are H or OH. Bridge positions count the residues as written; N and C are the ends. Square brackets hold non-standard residues; d marks the D form. Peptide text beside a SMILES is read from it. * marks the point of attachment. Lys(Me,(CH2)4NMe(CH2)5CO) = CN(CCCCCC(=O)[*:3])CCCCN(C)CCCC[C@H](N[*:1])C(=O)[*:2]; Lys(Me,(CH2)4NMe(CH2)4CO) = CN(CCCCC(=O)[*:3])CCCCN(C)CCCC[C@H](N[*:1])C(=O)[*:2]; Trp(7-Me) = Cc1cccc2c(C[C@H](N)C(=O)O)c[nH]c12; Trp(1-Me) = Cn1cc(C[C@H](N)C(=O)O)c2ccccc21; NH(2-(3-pyridyl)ethyl) = c1cncc(CCN*)c1; 2Nal = N[C@@H](Cc1ccc2ccccc2c1)C(=O)O; 3Pal = N[C@@H](Cc1cccnc1)C(=O)O; Thp = NC1(C(=O)O)CCOCC1; Me2NCH2CH2 = CN(C)CC*; Aib = CC(C)(N)C(=O)O; Sar = CNCC(=O)O
Tests used:
[1] = Solubility of peptide compounds in buffer formulations (Table 5); type: physicochemical; conditions: target 1 mg/ml
Protocol: Prior to the solubility measurement of a peptide batch, its purity was determined through UHPLC/MS method A.
For solubility testing the target concentration was 1 mg pure compound/ml. Therefore, solutions from solid samples were prepared in a buffer system at a concentration of 1 mg/mL compound. The solid samples were obtained by drying down aliquots of a freshly prepared dimethyl sulfoxide stock solution using a THERMO SPEEDVAC vacuum centrifuge. The dry down time was 3 hours.
The following buffer systems were applied: • Solubility buffer system A) 50 mM HCl pH 1.2 • Solubility buffer system B) 50 mM phosphate buffer pH 6.5 • Solubility buffer system C) 50 mM phosphate buffer pH 7.4 • UHPLC-UV was performed using analytical method A after 2 hours of gentle agitation from the filtered (0.45 μm filter plates) solutions, which were obtained by 10 mins of centrifugation forced filtration at 1500 RCF (relative centrifugal acceleration).
The solubility was determined by the comparison of the UV peak area of 2 μL-injections of a buffered sample diluted 1:10 with a standard curve of a dimethyl sulfoxide reference sample of known concentration. The different extinction coefficients were taken into account for the calculation.

[2] = Chemical stability (relative purity loss) of peptide compounds in buffer formulations (Table 6); type: physicochemical; conditions: 2° C. and 37° C.
Protocol: Purity of a peptide batch was determined through UHPLC/MS method A prior to chemical stability measurement.
For stability assessment, the target concentration was 0.5 mg pure compound/ml. Therefore, solutions from solid samples were prepared in a buffer system at a concentration of 0.5 mg/mL compound. The solid samples were obtained by drying down aliquots of a freshly prepared acetonitrile stock solution using a THERMO SPEEDVAC vacuum centrifuge. The dry down time was 3 hours.
The following buffer systems were applied: • Solubility buffer system A): 50 mM HCl pH 1.2+Acetonitrile (3:1). • Solubility buffer system B): 50 mM phosphate buffer pH 6.5+Acetonitrile (3:1). • Solubility buffer system C): 50 mM phosphate buffer pH 7.4+Acetonitrile (3:1). • Prepared solutions were stored for 24 hours at 2° C. and 37° C.
After this time course, the samples were centrifuged for 15 min at 2500 RCF to create a 1:5 dilution of the supernatant. Then 2 μl of the dilution were analyzed with UHPLC-UV applying method A.
The chemical stability was rated through the relative loss of purity calculated by the equation: […]

[3] = Protease stability in simulated intestinal fluids (FaSSIF) (Table 7); type: in vitro ADME; conditions: fassif with pancreatin, 37° C.; for remaining at 1 h, 1 µM: 60 min, read-out: Remaining percentage of peptide compound, FaSSIF 60 (min); for remaining at 2 h, 1 µM: 120 min, read-out: Remaining percentage of peptide compound, FaSSIF 120 (min); for remaining at 4 h, 1 µM: 240 min, read-out: Remaining percentage of peptide compound, FaSSIF 240 (min)
Protocol: (§1) Studies were carried out in simulated intestinal fluid (SIF) and simulated gastric fluid (SGF) to evaluate gastric stability of the peptide compounds disclosed herein.
Similarly, the term “Pancreatin-SIF” refers to a solution of simulated intestinal fluid containing pancreatin whereas “SIF-media” refers to a solution of simulated intestinal fluid without pancreatin. Pancreatin-SIF was prepared by dissolving 1 mg Pancreatin (MP Biomedicals) in 10 mL SIF media concentrate (PROSENSE).
(§2) Peptide compounds were first dissolved at 1 mM stock concentration in 0.01 HCl (+/−10% of DMSO) and were than diluted further with water to a stock concentration of 20 μM. Final peptide concentration in the incubation was 1 μM.
(§3) To 76 μL of the Pepsin-SGF buffer, 4 μL of the 20 μM peptide stock solution was added and incubated at 37° C. At each timepoint (0, 60, 120 and 240 minutes) the reaction was quenched with addition of 80 μL Ethanol (0.1% HCOOH). The samples were centrifuged for 20 minutes and an aliquot of the supernatant 100 μL were transferred to a LoBind-MTP plate and analyzed by LCMS/MS. The peak area response was calculated at each time point for each test compound. As internal reference, the peak area response of the same test compound at T0 was calculated. The percentage remaining at each timepoint was calculated based on the peak area response ratio of the test compound at T0. Time 0 was set to 100%, and all later timepoints were calculated relative to time 0.

[4] = Protease stability in simulated gastric fluids (FaSSGF) (Table 7); type: in vitro ADME; conditions: fassgf with pepsin, 60 min, 37° C., read-out: Remaining percentage of peptide compound, FaSSGF 60 (min)
Protocol: as §1
For clarification, the term “Pepsin-SGF” refers to a solution of simulated gastric fluid containing pepsin whereas “SGF media” refers to a solution of simulated gastric fluid without pepsin. Pepsin-SGF was prepared by dissolving 320 mg Pepsin (Merck Millipore) in 100 mL SGF media concentrate (PROSENSE).
as §2
as §3, with “(0,1%” for “(0.1%”
as §3

[5] = tested on: IL-23 induced STAT3 signaling (IL-23 receptor) in HEK-Blue IL-23 cells; experiment: Inhibition of IL-23 induced STAT3 signaling in HEK-Blue IL-23 cells, SEAP reporter (Table 9); type: cell-based; conditions: human IL23 0.25 ng/ml, overnight, read-out: Inhibition of IL-23 induced pSTAT3 (IC50 nM)
Source text: HEK-Blue™ IL-23 cells (INVIVOGEN) are designed for the detection of bioactive human (hIL-23) and murine IL-23 (mIL-23) by monitoring the activation of the STAT3 pathway. Binding of IL-23 to its receptor on the surface of HEK-Blue™ IL-23 cells triggers a signaling cascade leading to the activation of STAT3 and the subsequent production of secreted embryonic alkaline phosphatase (SEAP). This can be readily assessed using QUANTI-Blue™ Solution, a SEAP detection reagent.
HEK-Blue™ IL-23 cells were cultured as described by INVIVOGEN.
On the first day of assay 10 μL of the HEK-BLUE IL23 cell suspension (final concentration: 10,000 cells/well) and 10 μl of serially diluted peptides solutions were dispensed into a 384-well assay plate. After pre-incubation of the reaction mixtures at 37° C./5% CO2/95% humidity for 60 minutes, 10 μl of the humanIL23 cytokine (final concentration: 0.25 ng/ml) was added to each well for the STAT3 signaling activation. The plate was incubated overnight at 37° C./5% CO2/95% humidity.
On the second day 20 μl per well of QUANTI-BLUE detection solution (prepared according to the manufacture instruction) was dispensed into a new 384-well plate and followed by the transfer of 5 μl supernatant of the overnight incubated cell/sample mixtures. After incubation of 45 min at room temperature signals were measured with PHERASTAR (BMG) at OD 620-655 nm.
Dose response data were fitted with XLfit.

[6] = Buffer pH 1.1 (head; method: 50 mM HCl pH 1.2), 2 h agitation, read-out: Solubility, Buffer pH 1.1
[7] = aqueous buffer, 50 mM phosphate buffer pH 6.5, 2 h agitation, read-out: Solubility, Buffer pH 6.5
[8] = aqueous buffer, 50 mM phosphate buffer pH 7.4, 2 h agitation, read-out: Solubility, Buffer pH 7.4
[9] = 50 mM phosphate buffer pH 6.5 + acetonitrile (3:1), read-out: Chemical stability (relative purity loss), Buffer pH 6.5
[10] = 50 mM phosphate buffer pH 7.4 + acetonitrile (3:1), read-out: Chemical stability (relative purity loss), Buffer pH 7.4
[11] = 50 mm hcl + acetonitrile, Buffer pH 1.1 (head; method: 50 mM HCl pH 1.2 + acetonitrile 3:1), read-out: Chemical stability (relative purity loss), Buffer pH 1.1

| solubility at 2 h [1, 6] [µg/mL] | solubility at 2 h [1, 7] [µg/mL] | solubility at 2 h [1, 8] [µg/mL] | degraded at 24 h [2, 9] [%] | degraded at 24 h [2, 10] [%] | degraded at 24 h [2, 11] [%] | remaining at 1 h, 1 µM [3] [%] | remaining at 2 h, 1 µM [3] [%] | remaining at 4 h, 1 µM [3] [%] | remaining at 1 h, 1 µM [4] [%] | SMILES | IC50 [5] [nM] |
| --- | --- | --- | --- | --- | --- | --- | --- | --- | --- | --- | --- |
| ≥ 950 | ≥ 1080 | ≥ 1120 | 0 | 0.5 | 3.6 | 96 | 93 | 84 | 97 | CC(=O)NCCCC[C@@H]1NC(=O)[C@H](Cc2c[nH]c3c(C)cccc23)NC(=O)CCCCN(C)CCCCN(C)CCCC[C@@H](C(=O)N[C@@H](CC(N)=O)C(=O)N[C@@H](Cc2cccnc2)C(=O)N(C)CC(N)=O)NC(=O)C(C)(C)NC(=O)[C@H](Cc2ccc3ccccc3c2)NC(=O)[C@H](Cc2ccc(OCCN(C)C)cc2)NC(=O)C2(CCOCC2)NC1=O [compound 32] ([Trp(7-Me)]K(Ac)[Thp]Y(Me2NCH2CH2)[2Nal][Aib][Lys(Me,(CH2)4NMe(CH2)4CO)]N[3Pal][Sar]-NH2; lactam N-7) | 0.53 |
| ≥ 970 | ≥ 1050 | ≥ 1220 | 0 | 0.7 | 5.2 | 96 | 84 | 75 | 71 | CN(C)CCOc1ccc(C[C@@H]2NC(=O)C3(CCOCC3)NC(=O)[C@H](CCC(N)=O)NC(=O)[C@H](Cc3c[nH]c4ccccc34)NC(=O)CCCCN(C)CCCCN(C)CCCC[C@@H](C(=O)N[C@@H](CO)C(=O)N[C@@H](Cc3cccnc3)C(=O)N(C)CC(N)=O)NC(=O)C3(CCOCC3)NC(=O)[C@H](Cc3ccc4ccccc4c3)NC2=O)cc1 [compound 43] (WQ[Thp]Y(Me2NCH2CH2)[2Nal][Thp][Lys(Me,(CH2)4NMe(CH2)4CO)]S[3Pal][Sar]-NH2; lactam N-7) | 2.02 |

Continued, compound first:

| SMILES | solubility at 2 h [1, 6] [µg/mL] | solubility at 2 h [1, 7] [µg/mL] | solubility at 2 h [1, 8] [µg/mL] | degraded at 24 h [2, 9] [%] | degraded at 24 h [2, 10] [%] | degraded at 24 h [2, 11] [%] | remaining at 1 h, 1 µM [3] [%] | remaining at 2 h, 1 µM [3] [%] | remaining at 4 h, 1 µM [3] [%] | remaining at 1 h, 1 µM [4] [%] | IC50 [5] [nM] |
| --- | --- | --- | --- | --- | --- | --- | --- | --- | --- | --- | --- |
| CC(=O)NCCCC[C@@H]1NC(=O)[C@H](Cc2c[nH]c3c(C)cccc23)NC(=O)CCCCN(C)CCCCN(C)CCCC[C@@H](C(=O)NCC(=O)N[C@@H](Cc2cccnc2)C(=O)N(C)CC(N)=O)NC(=O)C(C)(C)NC(=O)[C@H](Cc2ccc3ccccc3c2)NC(=O)[C@H](Cc2ccc(OCCN(C)C)cc2)NC(=O)C2(CCOCC2)NC1=O [compound 29] ([Trp(7-Me)]K(Ac)[Thp]Y(Me2NCH2CH2)[2Nal][Aib][Lys(Me,(CH2)4NMe(CH2)4CO)]G[3Pal][Sar]-NH2; lactam N-7) | ≥ 970 | 850 (≈ 526 µM) | 830 (≈ 513 µM) | 0 | 0 | 3 | 96 | 95 | 90 | 99 | 2.75 |
| Cc1cccc2c(C[C@@H]3NC(=O)CCCCCN(C)CCCCN(C)CCCC[C@@H](C(=O)N[C@@H](CC(N)=O)C(=O)N[C@@H](Cc4cccnc4)C(=O)N(C)CC(N)=O)NC(=O)C(C)(C)NC(=O)[C@H](Cc4ccc5ccccc5c4)NC(=O)[C@H](Cc4ccc(OCCN(C)C)cc4)NC(=O)C4(CCOCC4)NC(=O)[C@H](CCC(N)=O)NC3=O)c[nH]c12 [compound 31] ([Trp(7-Me)]Q[Thp]Y(Me2NCH2CH2)[2Nal][Aib][Lys(Me,(CH2)4NMe(CH2)5CO)]N[3Pal][Sar]-NH2; lactam N-7) | ≥ 1020 | ≥ 1220 | ≥ 1090 | 0 | 0 | 6 | 93 | 91 | 90 | 100 | 0.71 |
| CN(C)CCOc1ccc(C[C@@H]2NC(=O)C3(CCOCC3)NC(=O)[C@H](CCC(N)=O)NC(=O)[C@H](Cc3cn(C)c4ccccc34)NC(=O)CCCCN(C)CCCCN(C)CCCC[C@@H](C(=O)NCC(=O)NCCc3cccnc3)NC(=O)C(C)(C)NC(=O)[C@H](Cc3ccc4ccccc4c3)NC2=O)cc1 [compound 25] ([Trp(1-Me)]Q[Thp]Y(Me2NCH2CH2)[2Nal][Aib][Lys(Me,(CH2)4NMe(CH2)4CO)]G-{NH(2-(3-pyridyl)ethyl)}; lactam N-7) | ≥ 950 | ≥ 890 | ≥ 860 |  |  |  | 97 | 95 | 96 | 98 | 42.5 |

Source: patent US20260297129A1, “PEPTIDES AS SELECTIVE IL-23 RECEPTOR INHIBITORS” (SANOFI, priority 2023, published 2026)
